# According to patent publication US20240239775A1, “FXR REGULATOR, PREPARATION METHOD THEREFOR, PHARMACEUTICAL COMPOSITION THEREOF AND USE THEREOF” (QINGDAO RUIJI MEDICAL TECHNOLOGY CO., LTD., priority 2021, published 2024):
# pIC50: −log10 of the molar value.
# Target: T1, FXR (Homo sapiens, UniProt Q96RI1)
# T1 construct: 5 μL of 20 nM FXR-LBD Complete Coregulator buffer G; purchased ThermoFisher PV4833
# T1 sequence (Q96RI1 262-486 limits assumed): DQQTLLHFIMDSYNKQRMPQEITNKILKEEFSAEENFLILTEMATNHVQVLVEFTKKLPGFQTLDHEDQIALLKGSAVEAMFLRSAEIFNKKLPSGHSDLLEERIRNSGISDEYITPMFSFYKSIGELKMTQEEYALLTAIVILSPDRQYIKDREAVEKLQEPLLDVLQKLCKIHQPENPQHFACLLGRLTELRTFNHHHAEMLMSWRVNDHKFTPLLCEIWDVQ
# Assay: FXR antagonist screening by TR-FRET (LanthaScreen TR-FRET FXR co-activation assay kit)
# Type: biochemical
# Details: Table 1.1, FXR antagonistic activity; TR-FRET with CDCA; geometric means of at least two independent runs
# Procedure, shortened: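 FXR-LBD (20 nM working solution) mixed with compound, CDCA (200 μM working solution) as agonist, Fluorescein-SRC2-2 and Tb-anti-GST antibody in Coregulator buffer G; 10 h at room temperature. Coactivator recruitment read by TR-FRET, triplicate wells.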
row,Structure (SMILES),pIC50
1,"CCOC(=O)c1oc2ccc(S(=O)(=O)N(CCc3ccccc3)Cc3c(F)cc(Cl)cc3F)cc2c1C [Example M4-62, ethyl 3-methyl-5-(N-(2,6-difluoro-4-chlorobenzyl)-N-phenethylsulfamoyl)benzofuran-2-carboxylate]",4.00 to 4.30
2,"CCOC(=O)c1oc2ccc(S(=O)(=O)N(CCc3ccccc3)Cc3c(C)cccc3C)cc2c1C [Example M4-50, ethyl 3-methyl-5-(N-(2,6-dimethylbenzyl)-N-phenethylsulfamoyl)benzofuran-2-carboxylate]",4.00 to 4.30
3,"CCOC(=O)c1oc2ccc(S(=O)(=O)N(CCc3ccccc3)Cc3ccc(-c4ccccc4C#N)cc3)cc2c1C [Example M4-83, ethyl 3-methyl-5-(N-((2′-cyano-[1,1′-biphenyl]-4-yl)methyl)-N-phenethylsulfamoyl)benzofuran-2-carboxylate]",4.00 to 4.30
4,"CCOC(=O)c1oc2ccc(S(=O)(=O)N(CCc3ccccc3)Cc3ccccc3N3CC[N+](C)(C)CC3)cc2c1C [Example M10-99, 4-(2-((2-(ethoxycarbonyl)-3-methyl-N-benzylethylbenzofuran)-5-sulfonylamino)phenyl)-1,1-dimethylpiperazin-1-ium]",4.00 to 4.30
5,"CCOC(=O)c1oc2ccc(S(=O)(=O)N(CCc3ccccc3)Cc3ccc(C(F)(F)F)cc3F)cc2c1C [Example M4-55, ethyl 3-methyl-5-(N-(2-fluoro-4-(trifluoromethyl)benzyl)-N-phenethylsulfamoyl)benzofuran-2-carboxylate]",4.00 to 4.30
6,"Cc1c(C(=O)O)oc2ccc(S(=O)(=O)N(CCc3ccccc3)Cc3ccc(C(=O)OC(C)(C)C)cc3)cc12 [Example F27-S40, 3-methyl-5-(N-(4-(tert-butoxycarbonyl)benzyl)-N-phenethylsulfamoyl)benzofuran-2-carboxylic acid]",4.30 to 5.00
7,"CCOC(=O)c1oc2ccc(S(=O)(=O)N(CCc3ccccc3)Cc3ccc(CC(=O)OC)cc3)cc2c1C [Example M4-41, ethyl 3-methyl-5-(N-(4-(2-methoxy-2-oxoethyl)benzyl)-N-phenethylsulfamoyl)benzofuran-2-carboxylate]",4.00 to 4.30
8,"CCOC(=O)c1oc2ccc(S(=O)(=O)N(CCc3ccccc3)c3ccc(N4CCN(C(=O)N(C)C)CC4)cc3)cc2c1C [Example M8-71, ethyl 3-methyl-5-(N-(4-(4-(dimethylcarbamoyl)piperazin-1-yl)phenyl)-N-phenethylsulfamoyl)benzofuran-2-carboxylate]",4.00 to 4.30
9,"CCOC(=O)c1oc2ccc(S(=O)(=O)N(CCc3ccccc3)Cc3c(Cl)cccc3Cl)cc2c1C [Example M4-49, ethyl 3-methyl-5-(N-(2,6-dichlorobenzyl)-N-phenethylsulfamoyl)benzofuran-2-carboxylate]",4.00 to 4.30
10,"CCOC(=O)c1oc2ccc(S(=O)(=O)N(CCc3ccccc3)c3ccccc3N3CCNCC3)cc2c1C [Example M9-1, ethyl 3-methyl-5-(N-phenethyl-N-(2-(piperazin-1-yl)phenyl)sulfamoyl)benzofuran-2-carboxylate]",4.00 to 4.30

# Same assay, conditions: Table 1.2, FXR antagonistic activity; TR-FRET with CDCA; geometric means of at least two independent runs
row,Structure (SMILES),pIC50
1,"Cc1c(C(=O)O)oc2ccc(S(=O)(=O)N(CCc3ccccc3)c3ccccc3N3CCN(C(=O)c4sccc4Br)C(C)C3)cc12 (centres unmarked) [Example F27-S156, 5-(N-(2-(4-(3-bromothiophene-2-formyl)-3-methylpiperazin-1-yl)phenyl)-N-phenethylsulfamoyl)3-methylbenzofuran-2-carboxylic acid]",5.00 to 7.00
2,"CCOC(=O)c1oc2ccc(S(=O)(=O)N(CCc3ccccc3)c3ccccc3N3CCN(C(=O)c4ccc(Cl)s4)CC3)cc2c1C [Example M10-128, Ethyl 5-(N-(2-(4-(5-chlorothiophene-2-carbonyl)piperazin-1-yl)phenyl)-N-phenethylsulfamoyl)-3-methylbenzofuran-2-carboxylate]",4.00 to 4.30
3,CCOC(=O)c1oc2ccc(S(=O)(=O)N(CCc3ccccc3)c3ccccc3N3CCC4(CCN(C(=O)c5sccc5Br)C4)CC3)cc2c1C [Example M10-148],4.00 to 4.30
4,"CCOC(=O)c1oc2ccc(S(=O)(=O)N(CCc3ccccc3)c3ccccc3N3CCC(NC(=O)c4sccc4Br)CC3)cc2c1C [Example M10-147, ethyl 5-(N-(2-(4-(3-bromothiophene-2-carboxamido)piperidin-1-yl)phenyl)-N-phenethylsulfamoyl)-3-methylbenzofuran-2-carboxylate]",4.00 to 4.30
5,"CCOC(=O)c1cc2ccc(S(=O)(=O)N(CCc3ccccc3)c3ccccc3N3CCN(C(=O)c4sccc4Br)CC3)cc2s1 [Example M10-160, Ethyl 6-(N-(2-(4-(3-bromothiophene-2-carbonyl)piperazin-1-yl)phenyl)-N-phenethylsulfamoyl)benzo[b]thiophene-2-carboxylate]",4.00 to 4.30
6,"Cc1c(C(=O)O)oc2ccc(S(=O)(=O)N(CCc3ccccc3)c3ccccc3N3CCN(C(=O)c4ccc(F)cc4)CC3)cc12 [Example F27-S112, 5-(N-(2-(4-(4-fluorobenzoyl)piperazin-1-yl)phenyl)-N-phenethylsulfamoyl)-3-methylbenzofuran-2-carboxylic acid]",5.00 to 7.00
7,"Cc1c(C(=O)O)sc2ccc(S(=O)(=O)N(C)c3ccccc3N3CCN(C(=O)c4sccc4Br)CC3)cc12 [Example F27-S182, 5-(N-(2-(4-(3-bromothiophene-2-carbonyl)piperazin-1-yl)phenyl)-N-methylsulfamoyl)-3-methylbenzothiophene-2-carboxylic acid]",5.00 to 7.00
8,"CCOC(=O)c1sc2ccc(S(=O)(=O)N(CCc3ccccc3)c3ccccc3N3CCN(C(=O)c4sccc4Br)CC3)cc2c1C [Example M10-158, ethyl 5-(N-(2-(4-(3-bromothiophene-2-carbonyl)piperazin-1-yl)phenyl)-N-phenethylsulfamoyl)-3-toluothiophene-2-carboxylate]",4.00 to 4.30
9,"Cc1c(C(=O)O)sc2ccc(S(=O)(=O)N(CCc3ccccc3[N+](=O)[O-])c3ccccc3N3CCN(C(=O)c4sccc4Br)CC3)cc12 [Example F27-S175, 5-(N-(2-(4-(3-bromothiophene-2-carbonyl)piperazin-1-yl)phenyl)-N-(2-nitrophenylethyl)sulfamoyl)-3-toluothiophene-2-carboxylic acid]",5.00 to 7.00
10,CCOC(=O)c1oc2ccc(S(=O)(=O)N(CCc3ccccc3)c3ccccc3N3CCN(C(=O)c4ccc(C#N)cc4)CC3)cc2c1C [Example M10-111],4.00 to 4.30
11,"CCOC(=O)c1sc2ccc(S(=O)(=O)N(CCc3ccc(Cl)cc3)c3ccccc3N3CCN(C(=O)c4sccc4Br)CC3)cc2c1C [Example M10-165, ethyl 5-(N-(2-(4-(3-bromothiophene-2-carbonyl)piperazin-1-yl)phenyl)-N-(4-chlorophenylethyl)sulfamoyl)-3-methylbenzothiophene-2-carboxylate]",4.00 to 4.30
12,"Cc1c(C(=O)O)oc2ccc(S(=O)(=O)N(CCc3ccccc3)c3ccccc3N3CCN(C(=O)c4cccs4)CC3)cc12 [Example F27-S118, 3-methyl-5-(N-phenethyl-N-(2-(4-(thiophene-2-carbonyl)piperazin-1-yl)phenyl)sulfamoyl)benzofuran-2-carboxylic acid]",5.00 to 7.00
13,"Cc1ccc(C(=O)N2CCN(c3ccccc3N(CCc3ccccc3)S(=O)(=O)c3ccc4oc(C(=O)O)c(C)c4c3)CC2)cc1C [Example F27-S132, 5-(N-(2-(4-(3,4-dimethylbenzoyl)piperazin-1-yl)phenyl)-N-phenethylsulfamoyl)3-methylbenzofuran-2-carboxylic acid]",5.00 to 7.00
14,"COc1ccccc1C(=O)N1CCN(c2ccccc2N(CCc2ccccc2)S(=O)(=O)c2ccc3oc(C(=O)O)c(C)c3c2)CC1 [Example F27-S136, 5-(N-(2-(4-(2-methoxybenzoyl)piperazin-1-yl)phenyl)-N-phenethylsulfamoyl)3-methylbenzofuran-2-carboxylic acid]",5.00 to 7.00
15,"CCOC(=O)c1oc2ccc(S(=O)(=O)N(CCc3ccccc3)c3ccccc3N3CCN(C(=O)c4ccccc4Cc4ccccc4)CC3)cc2c1C [Example M10-134, Ethyl 5-(N-(2-(4-(2-benzylbenzoyl)piperazin-1-yl)phenyl)-N-phenethylsulfamoyl)3-methylbenzofuran-2-carboxylate]",4.00 to 4.30
16,"CCOC(=O)c1sc2ccc(S(=O)(=O)N(CCc3cccc(OC)c3)c3ccccc3N3CCN(C(=O)c4sccc4Br)CC3)cc2c1C [Example M10-170, Ethyl 5-(N-(2-(4-(3-bromothiophene-2-carbonyl)piperazin-1-yl)phenyl)-N-(3-methoxyphenethyl)sulfamoyl)-3-methylbenzothiophene-2-carboxylate]",4.00 to 4.30
17,"CCOC(=O)c1oc2ccc(S(=O)(=O)N(CCc3ccccc3)c3ccccc3N3CCN(C(=O)c4sccc4Cl)CC3)cc2c1C [Example M10-126, Ethyl 5-(N-(2-(4-(3-chlorothiophene-2-carbonyl)piperazin-1-yl)phenyl)-N-phenethylsulfamoyl)-3-methylbenzofuran-2-carboxylate]",4.00 to 4.30
18,"Cc1c(C(=O)O)oc2ccc(S(=O)(=O)N(CCc3ccccc3)c3ccccc3N3CCN(C(=O)c4sccc4Br)CC3)cc12 [Example F27-S125, 5-(N-(2-(4-(3-bromothiophene-2-carbonyl)piperazin-1-yl)phenyl)-N-phenethylsulfamoyl)-3-methyl benzofuran-2-carboxylic acid]",5.00 to 7.00
19,"CCOC(=O)c1oc2ccc(S(=O)(=O)N(CCc3ccccc3)c3ccccc3N3CCN(C(=O)C(CC)CC)CC3)cc2c1C [Example M10-145, Ethyl 5-(N-(2-(4-(2-ethylbutyryl)piperazin-1-yl)phenyl)-N-phenethylsulfamoyl)3-methylbenzofuran-2-carboxylate]",4.00 to 4.30
